Results on 5 compounds are retold here after patent US20250109140A1, “5-[5-(PIPERIDIN-4-YL)THIENO[3,2-C]PYRAZOL-2-YL]INDAZOLE DERIVATIVES AND RELATED COMPOUNDS AS MODULATORS FOR SPLICING NUCLEIC ACIDS AND FOR THE TREATMENT OF PROLIFERATIVE DISEASES” (REMIX THERAPUTICS INC., priority 2022, published 2025).

Read-outs that look alike come from different tables or passages of the source. Bounds are passed on as bounds.

For orientation: EC50 means the concentration that produces a half-maximal response. Low values mean higher potency in that assay, high ones lower potency in that assay.

The subject of one assay is SMN2 mRNA. The experiment in a line: Splicing RT-qPCR gene panel, SMN2 canonical junction (CJ) mRNA. It counts as cell-based. To be noted: Homo sapiens; Table 8; larger gene panel, decrease in CJ mRNA levels. In a few lines:
(§1)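 Junction-specific RT-qPCR read-out: CJ marks canonical transcript, AJ marks alternative-exon inclusion, each normalized to GAPDH, GUSB or PPIA. Cells (A673 or K562) were dosed for 24 h with compound up to 10 uM final in 11 3-fold steps. RQ from 2^(−ΔΔCt) against DMSO became percentage response.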

In the next assay the test system is HTT mRNA. The experiment in a line: Splicing RT-qPCR assay, HTT canonical (CJ) and alternative (AJ) junction mRNA. It is filed as cell-based. As to conditions: Homo sapiens; for EC50: AC50 = 50% response in AJ mRNA increase. In a few lines:
as §1
A general note: Real-time PCR tracks product formation cycle by cycle.

The subject of the next assay is MYB mRNA. In words: Splicing RT-qPCR assay, MYB canonical (CJ) and alternative (AJ) junction mRNA. It is filed as cell-based. As to conditions: Homo sapiens; for EC50: AC50 = 50% response in AJ mRNA increase. In a few lines: as §1
In a further assay the test system is Target C mRNA. The experiment in a line: Splicing RT-qPCR gene panel, Target C canonical junction (CJ) mRNA. It counts as cell-based. To be noted: Homo sapiens; Table 8; larger gene panel, decrease in CJ mRNA levels. In a few lines:
as §1

The test system of the next assay is Target C. The experiment in a line: HiBiT protein abundance assay, Target C (K562 HiBiT knock-in cells). It is filed as cell-based, human. As to conditions: 24 hours treatment. How it is done: • Promega Nano-Glo HiBiT Lytic Detection System (cat #N3030) • Corning 384-well TC-treated microplates (cat #3570) • Synthego Engineered Cells Knock-In Clones
(§2) Cells were maintained in IMDM with 10% FBS. Before the assay, cells were diluted with […] growth media (IMDM+[…] media) and were seeded in a 384-well plate at a density of 10000 cells/well (for each cell line listed in Table 6). Each compound was prepared as a 10-point 3-fold serial dilution in DMSO with the top dose at a final concentration of […] in the well. Unmodified K562 cells were added at the previously specified density with DMSO to serve as an assay baseline and positive control (PC) and DMSO only with the respective modified cell lines was added to the negative control (NC) columns. Final DMSO concentration was kept at or below 0.25%. Treated cell plates were placed in an incubator at 37° C. with […] for 24 hours. After 24 hours, 25 μL of Complete HiflitLytic reagent was added to each well at room temperature (e.g. one plate requiring 10 mL Lytic Buffer, 100 μL LgBiT Protein, 200 μL Lytic Substrate), shaken for 5 minutes at 600 RPM, then left to sit for 10 minutes for signal to stabilize before reading on a Spark Cyto plate reader (Tecan) with a 500 ms measurement time.
(§3) To determine compound effects on protein abundance of each target in Table 6, the percent response for each respective cell line was calculated at each compound concentration as follows:
(§4) For the normalized response at each concentration, a four-parameter logistical regression was fit to the data and the response was interpolated at the 50% value to determine a concentration for protein abundance at 50% (IC50) the untreated control.
Background: With HiBiT, luminescence reflects the tagged protein that the partner subunit can reach.

A further assay has as its system HiBiT-tagged MYB protein. The experiment in a line: HiBiT protein abundance assay, MYB (K562 HiBiT knock-in cells). To be noted: 24 hours treatment. It is filed as cell-based, human. How it is done: (§5) Compounds described herein were used to screen for effects on quantitative protein abundance using a HiBit assay system (Promega). Quantitative protein abundance was determined by measuring the protein levels of HiBit-tagged protein targets expressed in cell culture via luminescence using the Nano-Glo HiBiT Lytic Detection System, which uses a split complementation assay format to reconstitute NanoBiT enzyme to generate a luminescent signal. A protein abundance assay was developed such that endogenous protein targets could be modified with the HiBiT peptide tag and their abundance could be assessed after compound treatment. Briefly, K562 cell lines containing a HiBiT-modification were treated with various compounds described herein (e.g., compounds of Formulas (I), or (II)). After treatment for 24 hours, the protein abundance of a specific target was determined by measuring luminescence.
as §2, §3, §4

The test system of assay [1] is K562 (human chronic myelogenous leukemia) cells. The experiment in a line: Cell viability, Cell Titer Glo 2.0 assay, K562 cells. To be noted: 72 hours. It is filed as cell-based. As for the experimental part: Compounds described herein were screened for toxicity in K562 (human chronic myelogenous leukemia) and SH-SY5Y (human neuroblastoma) cells using a Cell Titer Glo 2.0 assay.
Cells were plated at 500 cells/well (K562 cells) in 45 μL of IMDM supplemented with 10% FBS in a 384-well opaque plate. Wells containing only medium were used as a blank control. Test compounds (e.g., compounds of Formula (I), (III), (IV), (V), or (VI)) were first serially diluted in DMSO then diluted 1:100 with IMDM+10% FBS. The final concentration of DMSO was 0.1% in each well. The cells were incubated for 72 hours at 37° C. and 5% CO2 before assaying with Cell Titer Glo 2.0 reagent.
Background: Cellular ATP, detected with luciferase, serves as a proxy for viable cell number.

For the next assay, the system named is HiBiT-tagged HTT protein. In words: HiBiT protein abundance assay, HTT (K562 HiBiT knock-in cells). It is filed as cell-based, human. To be noted: 24 hours treatment. How it is done:
as §5, §2, §3, §4

[2] abbreviates: Table 7, RT-qPCR, A673 or K562 cells, 24 hours treatment.
The mark [3] stands for this setting: Table 7, IC50 = 50% response in CJ mRNA decrease, RT-qPCR, A673 or K562 cells, 24 hours treatment, read-out: HTT CJ.
Where [4] appears, read: Table 8, larger gene panel, decrease in CJ mRNA levels, read-out: HTT CJ IC50.
The mark [5] stands for this setting: Table 7, IC50 = 50% response in CJ mRNA decrease, RT-qPCR, A673 or K562 cells, 24 hours treatment, read-out: MYB CJ.
The mark [6] stands for this setting: Table 8, larger gene panel, decrease in CJ mRNA levels, read-out: MYB CJ IC50.

In the case of `Cc1cn2nc(-c3cc4cn([C@H]5CCNC[C@@H]5F)nc4s3)cc(C)c2n1` (mixture of isomers) [Compound 212, 5-(2,8-dimethylimidazo[1,2-b]pyridazin-6-yl)-2-((1:1 mixture of 3S,4S and 3R,4R)-3-fluoropiperidin-4-yl)-2H-thieno[2,3-c]pyrazole], the IC50 with SMN2 mRNA is 0.1 to 1 µM; in the assay on HTT mRNA (setting [3]), 1 to 10 µM; with HTT mRNA (setting [4]), 1 to 10 µM; in the assay on MYB mRNA (setting [5]), 1 to 10 µM; in the assay on MYB mRNA (setting [6]), above 10 µM; in the assay with Target C mRNA, above 10 µM. Besides, the IC50 in the assay on Target C was above 10 µM; with HiBiT-tagged MYB protein it was above 10 µM; in assay [1], 1 to 10 µM; in the assay on HiBiT-tagged HTT protein it was 1 to 10 µM. Besides, the EC50 was 1 to 10 µM with HTT mRNA (setting [2]) and above 10 µM in the assay with MYB mRNA (setting [2]).
`Cc1cn2nc(-n3cc4sc(C5CCNCC5)cc4n3)cc(C)c2n1` [Compound 101, 4-(2-[2,8-dimethylimidazo[1,2-b]pyridazin-6-yl]thieno[3,2-c]pyrazol-5-yl)piperidine]: the IC50 in the assay on SMN2 mRNA was below 0.1 µM; in the assay on HTT mRNA (setting [3]), below 0.1 µM; with HTT mRNA (setting [4]), 0.1 to 1 µM; with MYB mRNA (setting [5]), 0.1 to 1 µM; in the assay with MYB mRNA (setting [6]), 0.1 to 1 µM; with Target C mRNA it was below 0.1 µM. Moreover, the IC50 in the assay with Target C is below 0.1 µM; in the assay on HiBiT-tagged MYB protein, 0.1 to 1 µM; in assay [1] it was 0.1 to 1 µM; in the assay with HiBiT-tagged HTT protein, below 0.1 µM. Also, the EC50 in the assay on HTT mRNA (setting [2]) and with MYB mRNA (setting [2]) was 0.1 to 1 µM throughout.
As to `Cn1cc2cc(-n3cc4cc(C5CCNCC5)sc4n3)cc(F)c2n1` [Compound 104, 7-fluoro-2-methyl-5-[5-(piperidin-4-yl)thieno[2,3-c]pyrazol-2-yl]indazole], the IC50 is below 0.1 µM in the assay on SMN2 mRNA; below 0.1 µM in the assay with HTT mRNA (setting [3]); 0.1 to 1 µM with HTT mRNA (setting [4]); 0.1 to 1 µM with MYB mRNA (setting [5]); 0.1 to 1 µM in the assay with MYB mRNA (setting [6]); 0.1 to 1 µM in the assay on Target C mRNA. Besides, the IC50 with Target C is 0.1 to 1 µM; in the assay with HiBiT-tagged MYB protein it was 0.1 to 1 µM; in assay [1] it was 0.1 to 1 µM; in the assay on HiBiT-tagged HTT protein, below 0.1 µM. The EC50 with HTT mRNA (setting [2]) and with MYB mRNA (setting [2]) was 0.1 to 1 µM each time.
On to `Cn1cc2cc(-n3cc4sc(C5CCNCC5)cc4n3)cc(F)c2n1` [Compound 105, 7-fluoro-2-methyl-5-[5-(piperidin-4-yl)thieno[3,2-c]pyrazol-2-yl]indazole], for which the IC50 with SMN2 mRNA is 0.1 to 1 µM; in the assay with HTT mRNA (setting [3]) it was 0.1 to 1 µM; with HTT mRNA (setting [4]), 0.1 to 1 µM; in the assay on MYB mRNA (setting [5]), 1 to 10 µM; in the assay on MYB mRNA (setting [6]) it was 1 to 10 µM; in the assay on Target C mRNA, 1 to 10 µM. The IC50 in the assay with Target C was in the range of 1 to 10 µM; with HiBiT-tagged MYB protein it was 1 to 10 µM; in assay [1], 1 to 10 µM; in the assay with HiBiT-tagged HTT protein, 0.1 to 1 µM. Also, the EC50 in the assay with HTT mRNA (setting [2]) was in the range of 0.1 to 1 µM; with MYB mRNA (setting [2]) it was 1 to 10 µM.
Regarding `Cc1cn2nc(-n3cc4cc(C5CCNCC5)sc4n3)cc(C)c2n1` [Compound 110, 4-(2-[2,8-dimethylimidazo[1,2-b]pyridazin-6-yl]thieno[2,3-c]pyrazol-5-yl) piperidine], the IC50 was below 0.1 µM in the assay with SMN2 mRNA; 0.1 to 1 µM in the assay on HTT mRNA (setting [3]); 0.1 to 1 µM with HTT mRNA (setting [4]); 1 to 10 µM with MYB mRNA (setting [5]); 0.1 to 1 µM in the assay with MYB mRNA (setting [6]); 1 to 10 µM in the assay with Target C. Moreover, the IC50 (with HiBiT-tagged MYB protein; in assay [1]; in the assay on HiBiT-tagged HTT protein) was 1 to 10 µM each time. The 50% effective concentration (EC50) in the assay with HTT mRNA (setting [2]) and with MYB mRNA (setting [2]) was 0.1 to 1 µM throughout.
